Measurements published in patent US20220175693A1, “DIETARY SUPPLEMENT COMPRISING LUTEIN FOR TELOMERE PROTECTION, AND METHOD FOR PRODUCTION THEREOF” (BIOGEN EXTRACTS PRIVATE LIMITED, priority 2019, published 2022).

What was measured:
[1] = tested on: human adult primary fibroblast cells; assay: Telomere length by Telomere Analysis Technology (HT Q-FISH) and telomere shortening rate; format: cell-based
Text: A high-throughput (HT) Q-FISH technique was used. This method is based on a quantitative fluorescence in-situ hybridization method modified for cells in interphase2. In brief, telomeres are hybridized with a fluorescent Peptide Nucleic Acid probe (PNA) that recognizes three telomere repeats. The images of the nuclei and telomeres are captured by a high-content screen system. The intensity of the fluorescent signal from the telomeric PNA probes that hybridize to a given telomere is proportional to the length of that telomere. The intensities of fluorescence are translated to base pairs through a standard regression curve which is generated using control cell lines with known telomere length.
(§1) Sample Preparation and HT Q-FISH: On processing day, the samples and control cell lines frozen in liquid nitrogen are thawed at 37° C. and cell counts and cellular viability are determined. Aliquots with viability lower than 60% are considered below our QC standards and are not further analyzed. Cells are seeded in clear bottom black-walled 384-well plates at 15,000 cells per well in 5 replicates for each sample and 8 replicates for each control cell line.
Cells are fixed with methanol/acetic acid (3/1, vol/vol). Once these cells have fixed onto the plate, they are treated with pepsin to digest the cytoplasm and the nuclei are processed for in situ hybridization with the PNA probe. After several washing steps following standard DAPI incubation for DNA staining, the wells are filled up with mounting medium and the plate is stored overnight at 4° C.
HT Microscopy: Quantitative image acquisition and analysis is performed on a High Content Screening Opera System. Images are captured, using a 40×0.95 NA water immersion objective. UV and 488 nm excitation wavelengths are used to detect the DAPI and A488 signals respectively. With constant exposure settings, 15 independent images are captured at different positions for each well. Next, the nuclei images are used to define the region of interest for each cell, measuring telomere fluorescence intensity of the A488 image in all of them. The results of intensity for each foci are exported to the Columbus 2.4 software. Telomere length distribution and median telomere length are calculated with Life Length's proprietary program.
Median telomere length, 20th percentile telomere length, percentage of short telomeres and the coefficients of variation for each set of samples. The percentage of short telomeres is defined as the percentage of those below 3 Kbp (<3 Kbp). As mentioned earlier, measurements in five replicates per sample were performed.
For TAT analysis, data were grouped by condition (Ctrl, H2O2, LUT10, LUT5, LUT1, LUT10+H2O2, LUT5+H2O2, LUT1+H2O2) and time point of treatment (0, 4, and 8 weeks).
Due to the fact that DNA replication during the cell cycle causes of telomere shortening, the telomere length measurements performed were normalized by the total number of population doubling (cell replication) in each condition and week.
Telomere shortening rate was analysed, Median of telomere length (initial-final)/Population Doubling, at the defined time points and treatments, FIG. 8.
Graph of telomere length vs Population doubling at different treatments. Slope of regression line in each condition, represents the telomere shortening rate. Y=aX+b; a=slope andbb=y intercept, FIG. 9.

[2] = tested on: human adult primary fibroblast cells; assay: Cell count and viability of samples after thawing (Tripan-Blue exclusion); format: cell-based
Protocol: as §1, with “line. Cell count: An automated cell counter is used to determine the total number of cells in the vials. A minimum of 100.000 cells are needed to perform TAT. Cell viability by Tripan-Blue exclusion method. The exclusion criteria currently in place will reject aliquots with less than 60% viable cells.” for “line.”

[3] = Lutein 1 μg/ml + 10 μM H2O2, week 4 (P4)
[4] = Lutein 1 μg/ml + 10 μM H2O2, week 8 (P8)
[5] = Lutein 1 μg/ml, standard culture, week 4 (P4)
[6] = Lutein 1 μg/ml, standard culture, week 8 (P8)
[7] = Lutein 5 μg/ml + 10 μM H2O2, week 4 (P4)
[8] = Lutein 5 μg/ml + 10 μM H2O2, week 8 (P8)
[9] = Lutein 5 μg/ml, standard culture, week 4 (P4)
[10] = Lutein 5 μg/ml, standard culture, week 8 (P8)
[11] = Lutein 10 μg/ml + 10 μM H2O2, week 4 (P4)
[12] = Lutein 10 μg/ml + 10 μM H2O2, week 8 (P8)
[13] = Lutein 10 μg/ml, standard culture, week 4 (P4)
[14] = Lutein 10 μg/ml, standard culture, week 8 (P8)

## CC1=C[C@H](O)CC(C)(C)[C@H]1/C=C/C(C)=C/C=C/C(C)=C/C=C/C=C(C)/C=C/C=C(C)/C=C/C1=C(C)C[C@@H](O)CC1(C)C [Lutein]
[1]; Lutein 1 μg/ml (LUT1), standard conditions, 8 weeks
  Telomere shortening rate versus control: significant increase
[1]; Lutein 1 μg/ml + 10 μM H2O2, week 4
  Median Telomere Length (Table 7A): 5980 bp
[1]; [3]
  20th Percentile Length (telomere, TAT): 3381 base pairs
  Median Length (telomere, TAT): 5997 base pairs
  Telomere shortening rate (Median of telomere length (initial-final)/Population Doubling): 111 bp/PD
  Telomeres <3 Kbp (percentage of short telomeres): 16.72%
[1]; Lutein 1 μg/ml + 10 μM H2O2, week 8
  Median Telomere Length (Table 7A): 6045 bp
[1]; [4]
  20th Percentile Length (telomere, TAT): 2848 base pairs
  Median Length (telomere, TAT): 6037 base pairs
  Telomere shortening rate (Median of telomere length (initial-final)/Population Doubling): 63 bp/PD
  Telomeres <3 Kbp (percentage of short telomeres): 21.14%
[1]; Lutein 1 μg/ml + 10 μM H2O2, weeks 0-8
  Slope (Telomere Shortening Rate) of regression line, telomere length vs Population doubling: y = −66.365x + 7187.3
[1]; Lutein 1 μg/ml, standard culture, week 4
  Median Telomere Length (Table 7A): 5984 bp
[1]; [5]
  20th Percentile Length (telomere, TAT): 3351 base pairs
  Median Length (telomere, TAT): 5977 base pairs
  Telomere shortening rate (Median of telomere length (initial-final)/Population Doubling): 100 bp/PD
  Telomeres <3 Kbp (percentage of short telomeres): 16.87%
[1]; Lutein 1 μg/ml, standard culture, week 8
  Median Telomere Length (Table 7A): 6071 bp
[1]; [6]
  20th Percentile Length (telomere, TAT): 2848 base pairs
  Median Length (telomere, TAT): 6077 base pairs
  Telomere shortening rate (Median of telomere length (initial-final)/Population Doubling): 53 bp/PD
  Telomeres <3 Kbp (percentage of short telomeres): 21.29%
[1]; Lutein 1 μg/ml, standard culture, weeks 0-8
  Slope (Telomere Shortening Rate) of regression line, telomere length vs Population doubling: y = −55.261x + 7163.8
[1]; Lutein 5 μg/ml + 10 μM H2O2, week 4
  Median Telomere Length (Table 7A): 6085 bp
[1]; [7]
  20th Percentile Length (telomere, TAT): 3351 base pairs
  Median Length (telomere, TAT): 6077 base pairs
  Telomere shortening rate (Median of telomere length (initial-final)/Population Doubling): 93 bp/PD
  Telomeres <3 Kbp (percentage of short telomeres): 16.97%
[1]; Lutein 5 μg/ml + 10 μM H2O2, week 8
  Median Telomere Length (Table 7A): 5980 bp
[1]; [8]
  20th Percentile Length (telomere, TAT): 2977 base pairs
  Median Length (telomere, TAT): 5977 base pairs
  Telomere shortening rate (Median of telomere length (initial-final)/Population Doubling): 59 bp/PD
  Telomeres <3 Kbp (percentage of short telomeres): 20.09%
[1]; Lutein 5 μg/ml + 10 μM H2O2, weeks 0-8
  Slope (Telomere Shortening Rate) of regression line, telomere length vs Population doubling: y = −61.587x + 7222
[1]; Lutein 5 μg/ml, standard culture, week 4
  Median Telomere Length (Table 7A): 6340 bp
[1]; [9]
  20th Percentile Length (telomere, TAT): 3104 base pairs
  Median Length (telomere, TAT): 6349 base pairs
  Telomere shortening rate (Median of telomere length (initial-final)/Population Doubling): 80 bp/PD
  Telomeres <3 Kbp (percentage of short telomeres): 18.98%
[1]; Lutein 5 μg/ml, standard culture, week 8
  Median Telomere Length (Table 7A): 6177 bp
[1]; [10]
  20th Percentile Length (telomere, TAT): 2945 base pairs
  Median Length (telomere, TAT): 6037 base pairs
  Telomere shortening rate (Median of telomere length (initial-final)/Population Doubling): 55 bp/PD
  Telomeres <3 Kbp (percentage of short telomeres): 20.51%
[1]; Lutein 5 μg/ml, standard culture, weeks 0-8
  Slope (Telomere Shortening Rate) of regression line, telomere length vs Population doubling: y = −56.796x + 7261.1
[1]; Lutein 10 μg/ml + 10 μM H2O2, week 4
  Median Telomere Length (Table 7A): 5804 bp
[1]; [11]
  20th Percentile Length (telomere, TAT): 3073 base pairs
  Median Length (telomere, TAT): 5772 base pairs
  Telomere shortening rate (Median of telomere length (initial-final)/Population Doubling): 118 bp/PD
  Telomeres <3 Kbp (percentage of short telomeres): 19.10%
[1]; Lutein 10 μg/ml + 10 μM H2O2, week 8
  Median Telomere Length (Table 7A): 5972 bp
[1]; [12]
  20th Percentile Length (telomere, TAT): 2977 base pairs
  Median Length (telomere, TAT): 5977 base pairs
  Telomere shortening rate (Median of telomere length (initial-final)/Population Doubling): 66 bp/PD
  Telomeres <3 Kbp (percentage of short telomeres): 20.09%
[1]; Lutein 10 μg/ml + 10 μM H2O2, weeks 0-8
  Slope (Telomere Shortening Rate) of regression line, telomere length vs Population doubling: y = −71.479x + 7181.9
[1]; Lutein 10 μg/ml, standard culture, week 4
  Median Telomere Length (Table 7A): 6272 bp
[1]; [13]
  20th Percentile Length (telomere, TAT): 3198 base pairs
  Median Length (telomere, TAT): 6330 base pairs
  Telomere shortening rate (Median of telomere length (initial-final)/Population Doubling): 81 bp/PD
  Telomeres <3 Kbp (percentage of short telomeres): 18.48%
[1]; Lutein 10 μg/ml, standard culture, week 8
  Median Telomere Length (Table 7A): 6008 bp
[1]; [14]
  20th Percentile Length (telomere, TAT): 2977 base pairs
  Median Length (telomere, TAT): 5997 base pairs
  Telomere shortening rate (Median of telomere length (initial-final)/Population Doubling): 56 bp/PD
  Telomeres <3 Kbp (percentage of short telomeres): 20.21%
[1]; Lutein 10 μg/ml, standard culture, weeks 0-8
  Slope (Telomere Shortening Rate) of regression line, telomere length vs Population doubling: y = −57.039x + 7250
[1]; Lutein 10, 5 and 1 μg/ml + 10 μM H2O2, after 8 passages
  Telomere shortening rate compared to control (H2O2): significant difference
[1]; oxidative stress conditions, after 8 passages
  Effect on telomere length erosion in vitro: significant protective effect
[1]; treated groups in standard conditions (LUT10, LUT5, LUT1), 8 weeks
  Telomere analysis versus control, other differences: No other significant differences
[2]; [3]
  Viability of sample after thawing: 87%
[2]; [4]
  Viability of sample after thawing: 87%
[2]; [5]
  Viability of sample after thawing: 80%
[2]; [6]
  Viability of sample after thawing: 91%
[2]; [7]
  Viability of sample after thawing: 81%
[2]; [8]
  Viability of sample after thawing: 76%
[2]; [9]
  Viability of sample after thawing: 96%
[2]; [10]
  Viability of sample after thawing: 91%
[2]; [11]
  Viability of sample after thawing: 96%
[2]; [12]
  Viability of sample after thawing: 92%
[2]; [13]
  Viability of sample after thawing: 96%
[2]; [14]
  Viability of sample after thawing: 87%
